Where two headings read alike, the source gives them in different places.
Assays:
STAT6 = STAT6 inhibition test: (GLS)x8/pTA-Luc luciferase reporter in U2-OS cells stimulated with human IL-4; format: cell-based; conditions: human IL-4 40 ng/mL; for inhibition at 2 µM / Inhibition Rate of STAT6 (%): compound 2 μM, 8 hours; for inhibition at 2 µM: read-out: Inhibition Rate of STAT6 (%); for IC50: from inhibition rates at 1, 0.1, 0.01 and 0.001 μM, read-out: IC50 against activation of STAT6
Excerpt: (1) Construction of a STAT6 Reporter Plasmid
The Oligonucleotides (SEQ ID: 1, 2) containing two copies of STAT6 binding sequences (refer to J. Biol. Chem., vol. 276, No. 9, pp. 6675-6688 (2001).) were synthesized, and integrated into the enhancer region of the reporter plasmid pTA-Luc Vector (CLONTECH Laboratories, Inc.) at the restriction enzyme BgIII site.
When the oligonucleotide is integrated in positive direction into the plasmid, the upstream BglII site is not reconstructed. Therefore, STAT6 binding sequences can be increased by repeating integration of the oligonucleotide at the restriction enzyme BglII site.
In the present test, a plasmid including eight integrated STAT6 binding sequences was constructed and provided for the reporter assay as (GLS)x8/pTA-Luc. Confirmation of the sequences was carried out using an automated fluorescence sequencer (Model 310 (Applied Biosystems)).
(2) Transfection into U2-OS Cells and Inhibition Test for STAT6 Activation
U2-OS cells were seeded to at 2×10^4 cells/well in 96-well culture plates, and transfection was carried out using FuGENE 6 Transfection Reagent (Roche Diagnostics GmbH). The procedures of the transfection are shown below.
11 μg of reporter plasmid ((GLS)x8/pTA-Luc) and 1.1 μg of pCMV β (CLONTECH Laboratories, Inc.) were mixed in 1.1 mL of OPTI-MEM I medium (GIBCO BRL) (solution (A)).
33 μL of FuGENE 6 Transfection Reagent was mixed in 1.1 mL of OPTI-MEM I medium (solution (B)).
(§1) The above solution (A) and solution (B) were mixed, let them stand for 15 minutes at room temperature, then, 8.8 mL of OPTI-MEM I medium was added and diluted.
To this transfection solution, U2-OS cell suspension (11 mL) in McCoy's 5A medium (GIBCO BRL) containing 10% Fetal Bovine Serum (FBS; GIBCO BRL) at 2×10^5 cells/mL was added and well mixed.
(§2) 0.2 mL of the above solution was dispensed into each well of 96-well culture plates, and incubated for 24 hours (37° C., 5% CO2).
After removal of 50 μL of medium from each well, 50 μL of McCoy's 5A medium (serum-free) containing compound, of the present application was added to a final concentration of 0.01˜2 μM (0.001, 0.01, 0.1, 0.5, 1 or 2 μM), and the plates were incubated for 2 hours (37° C., 5% CO2).
10 μL of the McCoy's 5A medium (serum-free) containing human IL-4 (R&D Systems, Inc) was added to each well to achieve a final concentration of 40 ng/mL, and incubated for 8 hours (37° C., 5% CO2).
(§3) Medium was completely removed and plates were preserved at −80° C. until measurements.
(§4) Cell lysates were prepared by adding 40 μL of Passive Lysis Buffer (Promega Corporation) to each well.
(§5) 10 μL of each lysate was transferred to 96-well white plates. 50 μL of PicaGene L.T.2.0 (TOYO INK MFG. CO., LTD.) was added to each well, then, luminescence was measured after leaving for 10 minutes at room temperature.
(§6) 10 μL of each lysate was transferred to 96-well black plates. 100 μL of Z Buffer (preparation method will be explained later) was added to each well, and fluorescence was measured immediately.
(§7) 10 μL of each lysate was transferred to 96-well clear plates. 200 μL of protein assay reagent prepared from the BCA Protein Assay Kit (Pierce Biotechnology, Inc.) was added to each well, and, absorbance was measured after incubation for 30 minutes at 37° C.
(§8) For measurements of luminescence, fluorescence, and absorbance, microplate reader GENios (TECAN G.M.B.H.) was used.
(4) Calculation of Inhibition Rate
Luminescence values that show the degree of activation by IL-4 stimulation were normalized by β-gal values that show transfection efficiency. Using the normalized values, the following calculations were carried out using the luminescence values increased by IL-4 stimulation. Inhibition Rate(%)=[…] E: In the presence of the compound of the present application, increased luminescence value by IL-4 stimulation C: Without the presence of the compound of the present application, increased luminescence value by IL-4 stimulation […]

NF-κB = NF-κB inhibition test: pNFκB-Luc luciferase reporter in U2-OS cells stimulated with human TNF α; format: cell-based; conditions: human TNF α 10 ng/mL; for inhibition at 2 µM / Inhibition Rate of NF-κB (%): compound 2 μM, 8 hours; for inhibition at 2 µM: read-out: Inhibition Rate of NF-κB (%); for IC50: from inhibition rates at 1, 0.1, 0.01 and 0.001 μM, read-out: IC50 against activation of NF-κB
Method: (1) Transfection to U2-OS Cells and Inhibition Test of Activation
U2-OS cells were seeded at 2×10^4 cells/well in 96-well culture plate, and transfection was carried out using FuGENE 6 Transfection Reagent (Roche Diagnostics GmbH). The procedures of the transfection are shown below.
11 μg of reporter plasmid (pNFκB-Luc; Stratagene Corporation) and 1.1 μg of pCMV β (CLONTECH Laboratories, Inc.) were mixed in 1.1 mL of OPTI-MEM I medium (GIBCO BRL) (solution (A)).
[…] of FuGENE 6 Transfection Reagent was mixed in 1.1 mL of OPTI-MEM I medium (solution (B)).
as §1
To this transfection solution, U2-OS cell suspension (11 mL) in McCoy's 5A medium (GIBCO BRL) containing 10% Fetal Bovine Serum (FBS; GIBCO BRL) at […] was added and well mixed.
as §2
After removal of 50 μL of medium from each well, 50 μL of McCoy's 5A medium (serum-free) containing compound of the present application was added to a final concentration of 0.01˜2 μM (0.001, 0.01, 0.1, 0.5, 1 or 2 μM), and the plates were incubated for 2 hours (37° C., 5% CO2).
10 μL of the McCoy's 5A medium (serum-free) containing human TNF α (PEPROTECH EC Ltd.) was added to each well to achieve a final concentration of 10 ng/mL, and incubated for 8 hours (37° C., 5% CO2).
as §3, §4, §5, §6, §7, §8
(3) Calculation of Inhibition Rate
Luminescence values that show the degree of activation by TNF α stimulation were normalized by β-gal values that show transfection efficiency. Using the normalized values, the following calculation was carried out using the luminescence values that increased by TNF α stimulation. Inhibition Rate(%)=[…] E: In the presence of the compound of the present application, increased luminescence values by TNF α stimulation C: Without the presence of the compound of the present application, increased luminescence values by TNF α, stimulation
The values of protein assay by BCA reagent were used for a simple assessment of cytotoxicity, and not used for the calculation of inhibition rates.
NF-κB Inhibition Rates are shown below. The values in parentheses in the table represent the concentration of the compound of the present application.
NF-κB inhibition rates where the concentrations of the compound of the present application were 1, 0.1, 0.01 and 0.001 μM were calculated, and the 50% inhibitory concentrations (IC50) of the compounds of the present application against activation of NF-κB were evaluated.

SMILES	Inhibition Rate of STAT6 (%) (STAT6)	Inhibition Rate of NF-κB (%) (NF-κB)	also measured
O=C(Nc1ccc(N2CCNCC2)c(F)c1)c1cc(Cl)ccc1O [Compound 22]			inhibition at 2 µM (STAT6; U2OS): 85%; IC50 (STAT6; U2OS): 82.3 nM; inhibition at 2 µM (NF-κB; U2OS): 82%; IC50 (NF-κB; U2OS): 80.8 nM
NC1CCN(c2ccc(NC(=O)c3cc(Cl)ccc3O)cc2F)CC1 [Compound 27]			inhibition at 2 µM (STAT6; U2OS): 98%; IC50 (STAT6; U2OS): 3.22 nM; inhibition at 2 µM (NF-κB; U2OS): 95%; IC50 (NF-κB; U2OS): 6.79 nM
O=C(Nc1ccc(C2CCNCC2)c(F)c1)c1cc(Cl)ccc1O [Compound 41]			inhibition at 2 µM (STAT6; U2OS): 78%; inhibition at 2 µM (NF-κB; U2OS): 74%
CNC1CCN(c2ccc(NC(=O)c3cc(Cl)ccc3O)cc2F)CC1 [Compound 68]			inhibition at 2 µM (STAT6; U2OS): 74%; IC50 (STAT6; U2OS): 40.4 nM; inhibition at 2 µM (NF-κB; U2OS): 71%; IC50 (NF-κB; U2OS): 63.6 nM
CN(C)C1CCN(c2ccc(NC(=O)c3cc(Cl)ccc3O)cc2F)CC1 [Compound 78]			inhibition at 2 µM (STAT6; U2OS): 46%; inhibition at 2 µM (NF-κB; U2OS): 49%
O=C(Nc1cc(C(F)(F)F)cc(C(F)(F)F)c1)c1cc(Cl)ccc1O [N-[3,5-Bis(trifluoromethyl)phenyl]-5-chloro-2-hydroxybenzamide, reference compound]			IC50 (NF-κB; U2OS): 385 nM
O=C(Nc1ccc(N2CCCCC2)c(F)c1)c1cc(Cl)ccc1O [compound 2]	90 (2 μM) %	77 (2 μM) %	IC50 (STAT6): 58.1 nM; IC50 (NF-κB): 39.4 nM
O=C(Nc1ccc(N2CCOCC2)c(C(F)(F)F)c1)c1cc(Cl)ccc1O [compound 3]	67 (2 μM) %	30 (2 μM) %	
O=C(Nc1ccc(N2CCCCC2)c(C(F)(F)F)c1)c1cc(Cl)ccc1O [compound 4]	71 (2 μM) %	28 (2 μM) %	
O=C(Nc1ccc(OC2CCCCC2)c(C(F)(F)F)c1)c1cc(Cl)ccc1O [compound 5]	88 (2 μM) %	63 (2 μM) %	
O=C(Nc1ccc(N2CCCCCC2)c(F)c1)c1cc(Cl)ccc1O [compound 7]	84 (2 μM) %	46 (2 μM) %	
O=C(Nc1ccc(N2CCCCC2)c(Cl)c1)c1cc(Cl)ccc1O [compound 8]	93 (2 μM) %	61 (2 μM) %	
Cc1cc(NC(=O)c2cc(Cl)ccc2O)ccc1N1CCCCC1 [compound 9]	53 (2 μM) %		
O=C(Nc1ccc(OC2CCCCC2)c(F)c1)c1cc(Cl)ccc1O [compound 10]	76 (2 μM) %	45 (2 μM) %	
CC(=O)N1CCN(c2ccc(NC(=O)c3cc(Cl)ccc3O)cc2F)CC1 [compound 11]	40 (2 μM) %	22 (2 μM) %	
CN1CCN(c2ccc(NC(=O)c3cc(Cl)ccc3O)cc2F)CC1 [compound 12]	94 (2 μM) %	91 (2 μM) %	IC50 (STAT6): 15 nM; IC50 (NF-κB): 25.2 nM
CCOc1cc(NC(=O)c2cc(Cl)ccc2O)ccc1N1CCCCC1 [compound 14]	56 (2 μM) %	60 (2 μM) %	
Cl.O=C(Nc1ccc(N2CCC(N3CCCC3)CC2)c(F)c1)c1cc(Cl)ccc1O [compound 15]	59 (2 μM) %	53 (2 μM) %	
CN1CCN(c2ccc(NC(=O)c3cc(Cl)ccc3O)cc2C(F)(F)F)CC1.Cl [compound 16]	92 (2 μM) %	86 (2 μM) %	IC50 (STAT6): 82.2 nM; IC50 (NF-κB): 89.1 nM
CN1CCN(c2ccc(NC(=O)c3cc(Cl)ccc3O)cc2Cl)CC1.Cl [compound 17]	96 (2 μM) %	90 (2 μM) %	IC50 (STAT6): 82.9 nM; IC50 (NF-κB): 113 nM
Cc1cc(NC(=O)c2cc(Cl)ccc2O)ccc1N1CCN(C)CC1.Cl [compound 18]	79 (2 μM) %	67 (2 μM) %	IC50 (STAT6): 91.9 nM; IC50 (NF-κB): 147 nM
Cc1cc(NC(=O)c2cc(Cl)ccc2O)ccc1N1CCNCC1 [compound 23]	24 (2 μM) %	11 (2 μM) %	
CN1CCC(Oc2ccc(NC(=O)c3cc(Cl)ccc3O)cc2F)CC1 [compound 24]	93 (2 μM) %	91 (2 μM) %	IC50 (STAT6): 36.8 nM; IC50 (NF-κB): 43.3 nM
Cc1cc(NC(=O)c2cc(Cl)ccc2O)ccc1OC1CCN(C)CC1 [compound 25]	80 (2 μM) %	60 (2 μM) %	
CN1CCN(c2ccc(NC(=O)c3ccccc3O)cc2F)CC1.Cl [compound 30]	19 (2 μM) %		
Cl.O=C(Nc1ccc(OC2CCCNC2)c(F)c1)c1cc(Cl)ccc1O (centres unmarked) [compound 56]	19 (2 μM) %		
CC1CN(c2ccc(NC(=O)c3cc(Cl)ccc3O)cc2F)CCN1.Cl (centres unmarked) [compound 73]	20 (2 μM) %		
CC1CCCN1c1ccc(NC(=O)c2cc(Cl)ccc2O)cc1F (centres unmarked) [compound 82]	38 (2 μM) %		

From patent publication US7671058B2, “N-(3,4-disubstituted phenyl) salicylamide derivatives” (Institute of Medicinal Molecular Design, Inc., priority 2006, dated 2010)
